Reference: patent US7638540B2, “Benzofuran compound and medicinal composition containing the same” (The New Industry Research Organization, priority 2003, dated 2009)

SMILES | melting point
C/C(O)=C(\C#N)C(=O)Nc1c(C(=O)O)oc2ccccc12 [Example 92, (Z)-3-(2-cyano-3-hydroxy-2-butenoylamino)benzofurane-2-carboxylic acid] | 196.3 to 196.6 °C
CCOC(=O)C(CSCc1ccccc1)NC(=O)/C=C/C=C(\Cl)c1cc2cccc(OCCCCl)c2o1 (stereo not drawn) [Example 63, Ethyl (2E,4Z)-3-benzylsulfanyl-2-{5-chloro-5-[7-(3-chloropropoxy)benzofuran-2-yl]penta-2,4-dienoylamino}propionate] | 116.5 to 118.3 °C
CC(=O)c1oc2ccccc2c1NC(=O)/C(C#N)=C(/C)O [Example 66, (Z)-N-(2-acetylbenzofuran-3-yl)-2-cyano-3-hydroxy-2-butenamide] | 206.1 to 208.1 °C
C/C=C/C(=O)Nc1c(C(C)=O)oc2cc(OC)ccc12 [Example 116, (E)-N-(2-acetyl-6-methoxybenzofuran-3-yl)-2-butenamide] | 153.8 to 155.7 °C
CC(=O)c1oc2ccc(C#N)cc2c1NC(=O)/C(C#N)=C(/C)O [Example 93, (Z)-N-(2-acetyl-5-cyanobenzofuran-3-yl)-2-cyano-3-hydroxy-2-butenamide] | 216 to 218 °C
CCN(CC)C(=O)/C=C(\C)c1ccc2oc(C(=O)c3ccc(C#N)cc3)c(NC(=O)/C(C#N)=C(/C)O)c2c1 [Example 109, N-[2-(4-cyanobenzoyl)-5-((E)-2-diethylcarbamoyl-1-methylvinyl)benzofuran-3-yl]-2-cyano-3-hydroxy-(Z)-2-butenamide] | 219.5 to 222.8 °C
CC(=O)c1oc2ccc(Br)cc2c1NC(=O)c1cnoc1C [Example 65, N-(2-acetyl-5-bromobenzofuran-3-yl)-5-methylisoxazole-4-carboxamide] | 206 to 208 °C
CCOC(=O)c1oc2ccc(Br)cc2c1NC(=O)c1cnoc1C [Example 67, Ethyl 5-bromo-3-[(5-methylisoxazole-4-carbonyl)amino]benzofurane-2-carboxylate] | 170 to 172.8 °C
CCN(CC)C(=O)/C=C(\C)c1ccc2oc(C(=O)c3ccc(C#N)cc3)c(NC(=O)c3cnoc3C)c2c1 [Example 89, (E)-N-[2-(4-cyanobenzoyl)-5-(2-diethylcarbamoyl-1-methylvinyl)benzofuran-3-yl]-5-methylisoxazole-4-carboxamide] | 202.6 to 205.5 °C
COc1ccc(CCNC(=O)/C=C(\C)c2cc3cccc(OC(c4ccccc4)c4ccccc4)c3o2)cc1OC [Example 47, (E)-3-(7-benzhydryloxybenzofuran-2-yl)-N-[2-(3,4-dimethoxyphenyl)ethyl]-2-butenamide] | 70.8 to 73.5 °C
COc1ccc(NC(=O)/C(C#N)=C(/C)O)c2cc(C(C)=O)oc12 [Example 112, (Z)-N-(2-acetyl-7-methoxybenzofuran-4-yl)-2-cyano-3-hydroxy-2-butenamide] | 243.4 to 246.4 °C
COc1ccc(CCNC(=O)/C=C(\C)c2ccc(C(=O)c3oc4c(OC)cccc4c3NC(=O)c3cnoc3C)cc2)cc1OC [Example 84, (E)-N-[2-(4-{2-[2-(3,4-dimethoxyphenyl)ethylcarbamoyl]-1-methylvinyl}benzoyl)-7-methoxybenzofuran-3-yl]-5-methylisoxazole-4-carboxamide] | 237.5 to 239.1 °C
CCNS(=O)(=O)c1ccc(OCCCC(=O)O)c2oc(C(C)NC(=O)/C(C#N)=C(\C)O)cc12 (stereo not drawn) [Example 129, (E)-4-{2-[1-(2-cyano-3-hydroxy-2-butenoylamino)ethyl]-4-ethylsulfamoylbenzofuran-7-yloxy}butyric acid] | 169.3 to 170.2 °C
CC(=O)c1oc2ccccc2c1NC(=O)c1cnoc1C [Example 69, N-(2-acetylbenzofuran-3-yl)-5-methylisoxazole-4-carboxamide] | 174 to 177 °C
Cc1oncc1C(=O)Nc1c(C#N)oc2ccc(Br)cc12 [Example 85, N-(5-bromo-2-cyanobenzofuran-3-yl)-5-methylisoxazole-4-carboxamide] | 239.2 to 241.9 °C
COc1ccc(CCNC(=O)/C=C(\C)c2ccc3oc(C(=O)c4ccc(C#N)cc4)c(NC(=O)c4cnoc4C)c3c2)cc1OC [Example 90, (E)-N-(2-(4-cyanobenzoyl)-5-{2-[2-(3,4-dimethoxyphenyl)ethylcarbamoyl]-1-methylvinyl}benzofuran-3-yl)-5-methylisoxazole-4-carboxamide] | 162.6 to 165.5 °C
CCN(CC)C(=O)/C=C(\C)c1ccc2oc(C(C)=O)c(NC(=O)c3cnoc3C)c2c1 [Example 74, (E)-N-[2-acetyl-5-(2-diethylcarbamoyl-1-methylvinyl)benzofuran-3-yl]-5-methylisoxazole-4-carboxamide] | 170.3 to 174.1 °C
COc1cccc2c(NC(=O)c3cnoc3C)c(C(C)=O)oc12 [Example 80, N-(2-acetyl-7-methoxybenzofuran-3-yl)-5-methylisoxazole-4-carboxamide] | 181 to 181.7 °C
CC(=O)c1oc2ccc(/C(C)=C/C(=O)N3CCN(c4ccccc4)CC3)cc2c1NC(=O)/C(C#N)=C(/C)O [Example 95, N-{2-acetyl-5-[1-methyl-3-oxo-3-(4-phenylpiperazin-1-yl)-(E)-1-propenyl]benzofuran-3-yl}-2-cyano-3-hydroxy-(Z)-2-butenamide] | 167.6 to 168.7 °C
N#Cc1oc2ccc(Br)cc2c1NC(=O)/C=C/c1ccccc1 [Example 122, (E)-N-(5-bromo-2-cyanobenzofuran-3-yl)-3-phenylacrylamide] | 240.2 to 242 °C
COc1ccc(CCNC(=O)/C=C(\C)c2ccc(C(=O)c3oc4c(OC)cccc4c3NC(=O)/C(C#N)=C(/C)O)cc2)cc1OC [Example 106, N-[2-(4-{(E)-2-[2-(3,4-dimethoxyphenyl)ethylcarbamoyl]-1-methylvinyl}benzoyl)-7-methoxybenzofuran-3-yl]-2-cyano-3-hydroxy-(Z)-2-butenamide] | 202.9 to 205.8 °C

Second part, the molecule after the results:

melting point | SMILES
99.8 to 104 °C | Cc1oc2ccc(Br)cc2c1/C(Cl)=C/C=O [Example 151, (Z)-3-(5-bromo-2-methylbenzofuran-3-yl)-3-chloropropenal]
123.8 to 126.5 °C | COc1ccc(/C=C/C(=O)c2oc3ccc(Br)cc3c2NC(=O)CCNCc2ccccc2)cc1 [Example 203, (E)-3-benzylamino-N-{5-bromo-2-[3-(4-methoxyphenyl)acryloyl]benzofuran-3-yl}propionamide]
234.5 to 241.5 °C | COc1cccc(NC(=O)c2oc3ccc(Br)cc3c2NC(=O)/C(C#N)=C(/C)O)c1 [Example 188, (Z)-5-bromo-3-(2-cyano-3-hydroxy-2-butenoylamino)benzofurane-2-carboxylic acid (3-methoxyphenyl)amide]
216.8 to 218.7 °C | COc1ccc2oc(-c3csc(NC(=O)c4cnoc4C)n3)c(-c3ccc(Cl)cc3)c2c1 [Example 220, 5-methylisoxazole-4-carboxylic acid {4-[3-(4-chlorophenyl)-5-methoxybenzofuran-2-yl]thiazol-2-yl}amide]
67 to 69.5 °C | CCOC(=O)CCCOc1cccc2cc(/C(Cl)=C/C=O)oc12 [Example 140, Ethyl 4-[2-(1-chloro-3-oxopropenyl)benzofuran-7-yloxy]-butyrate]
167.8 to 169.2 °C | COc1ccc2oc(-c3nc(N=CN(C)C)sc3/C=N/CCO)c(-c3ccc(Cl)cc3)c2c1 [Example 223, N′-{4-[3-(4-chlorophenyl)-5-methoxybenzofuran-2-yl]-5-[(2-hydroxyethylimino)methyl]thiazol-2-yl}-N,N-dimethylformamidine]
223 to 229 °C | COc1cccc(NC(=O)c2oc3ccc(Br)cc3c2NC(=O)c2cnoc2C)c1 [Example 183, 5-methyl-isoxazole-4-carboxylic acid [5-bromo-2-(3-methoxyphenylcarbamoyl)benzofuran-3-yl]amide]
200 to 202 °C | C/C=C/C(=O)Nc1c(Cl)oc2ccc(Br)cc12 [Example 184, (E)-2-butenoic acid (5-bromo-2-chlorobenzofuran-3-yl)amide]
185.5 to 187.8 °C | Brc1ccc2oc(-c3csc(-c4ccccc4)n3)cc2c1 [Example 212, 4-(5-bromobenzofuran-2-yl)-2-phenylthiazole]
212 to 212.3 °C | COc1cc(C(=O)Nc2c(C(C)=O)oc3ccc(Br)cc23)cc(OC)c1OC [Example 210, N-(2-acetyl-5-bromobenzofuran-3-yl)-3,4,5-trimethoxybenzamide]
151.3 to 153.3 °C | COc1ccc2oc(-c3csc(-c4ccccc4)n3)c(-c3ccc(Cl)cc3)c2c1 [Example 215, 4-[3-(4-chlorophenyl)-5-methoxybenzofuran-2-yl]-2-phenylthiazole]
80.6 to 82.1 °C | CCN(CC)C(=O)/C=C(\C)c1ccc(OCCCCl)c2oc(C(C)=O)cc12 [Example 137, (E)-3-[2-acetyl-7-(3-chloropropoxy)benzofuran-4-yl]-2-butenoic acid diethylamide]
204.7 to 206.8 °C | O=C(CCCl)Nc1c(C(=O)/C=C/c2ccccc2)oc2ccc(Br)cc12 [Example 201, (E)-N-[5-bromo-2-(3-phenylacryloyl)-benzofuran-3-yl]-3-chloropropionamide]
248 °C | CN(C)/C=C/C(=O)c1oc2ccc(Br)cc2c1NC(=O)/C=C/c1ccccc1 [Example 176, (E,E)-N-[5-bromo-2-(3-dimethylaminoacryloyl)-benzofuran-3-yl]-3-phenylacrylamide]
156.4 to 158.4 °C | Cc1nc(-c2oc3c(Cl)cccc3c2-c2ccc(Cl)cc2)cs1 [Example 214, 4-[7-chloro-3-(4-chlorophenyl)benzofuran-2-yl]-2-methylthiazole]
104.7 to 107.7 °C | C/C=C/C(=O)NC(C)c1cc2cccc(OCCCCl)c2o1 (stereo not drawn) [Example 133, (E)-N-{1-[7-(3-chloropropoxy)benzofuran-2-yl]ethyl}-2-butenamide]
220 to 221.3 °C | COc1cccc2c(NC(=O)/C=C/c3ccccc3)c(Cl)oc12 [Example 181, (E)-N-(2-chloro-7-methoxybenzofuran-3-yl)-3-phenylacrylamide]
169.1 to 170.2 °C | COc1cccc2c(NC(=O)CCCl)c(C(C)=O)oc12 [Example 204, N-(2-acetyl-7-methoxybenzofuran-3-yl)-3-chloropropionamide]
